From the kinase profiling compilation of Christmann-Franck et al. (2016)

Columns and labels:
Assay in all cases: radiometric filter-binding kinase assay, Kinase HotSpot
Settings in all cases: compound 0.5 µM; ATP 10 µM
[1] = target: AKT1 (human) (UniProt P31749)
[2] = target: AXL (human) (UniProt P30530)
[3] = target: BLK (human) (UniProt P51451)
[4] = target: BTK (human) (UniProt Q06187)
[5] = target: CDK4 CCND1 (human) (UniProt P24385+P11802)
[6] = target: CDK4 CCND3 (human) (UniProt P30281+P11802)
[7] = target: CDK5 CDK5R1 p35 (human) (UniProt Q00535+Q15078)
[8] = target: CDK7 CCNH MNAT1 (human) (UniProt P50613+P51948+P51946)
[9] = target: CSNK1D (human) (UniProt P48730)
[10] = target: DAPK3 (human) (UniProt O43293)
[11] = target: DCLK2 (human) (UniProt Q8N568)
[12] = target: DDR2 (human) (UniProt Q16832)
[13] = target: EPHA5 (human) (UniProt P54756)
[14] = target: EPHA7 (human) (UniProt Q15375)
[15] = target: FES (human) (UniProt P07332)
[16] = target: FGFR2 (human) (UniProt P21802)
[17] = target: FYN (human) (UniProt P06241)
[18] = target: GRK7 (human) (UniProt Q8WTQ7)
[19] = target: GSK3B (human) (UniProt P49841)
GSK3B (human), sequence (P49841 whole entry, looked up): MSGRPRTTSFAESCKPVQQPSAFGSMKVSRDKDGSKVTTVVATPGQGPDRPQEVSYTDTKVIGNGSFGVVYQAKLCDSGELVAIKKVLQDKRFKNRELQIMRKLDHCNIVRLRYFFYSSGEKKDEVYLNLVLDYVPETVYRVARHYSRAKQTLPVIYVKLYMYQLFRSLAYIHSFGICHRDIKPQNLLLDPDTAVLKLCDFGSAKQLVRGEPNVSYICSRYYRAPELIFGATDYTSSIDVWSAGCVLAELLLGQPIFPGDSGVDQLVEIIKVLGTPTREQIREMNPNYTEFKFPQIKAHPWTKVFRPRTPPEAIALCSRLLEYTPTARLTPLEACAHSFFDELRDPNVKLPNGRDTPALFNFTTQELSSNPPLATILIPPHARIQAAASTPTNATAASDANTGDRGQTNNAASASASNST

[20] = target: HIPK1 (human) (UniProt Q86Z02)
[21] = target: IKBKB (human) (UniProt O14920)
IKBKB (human), sequence (O14920 whole entry, looked up): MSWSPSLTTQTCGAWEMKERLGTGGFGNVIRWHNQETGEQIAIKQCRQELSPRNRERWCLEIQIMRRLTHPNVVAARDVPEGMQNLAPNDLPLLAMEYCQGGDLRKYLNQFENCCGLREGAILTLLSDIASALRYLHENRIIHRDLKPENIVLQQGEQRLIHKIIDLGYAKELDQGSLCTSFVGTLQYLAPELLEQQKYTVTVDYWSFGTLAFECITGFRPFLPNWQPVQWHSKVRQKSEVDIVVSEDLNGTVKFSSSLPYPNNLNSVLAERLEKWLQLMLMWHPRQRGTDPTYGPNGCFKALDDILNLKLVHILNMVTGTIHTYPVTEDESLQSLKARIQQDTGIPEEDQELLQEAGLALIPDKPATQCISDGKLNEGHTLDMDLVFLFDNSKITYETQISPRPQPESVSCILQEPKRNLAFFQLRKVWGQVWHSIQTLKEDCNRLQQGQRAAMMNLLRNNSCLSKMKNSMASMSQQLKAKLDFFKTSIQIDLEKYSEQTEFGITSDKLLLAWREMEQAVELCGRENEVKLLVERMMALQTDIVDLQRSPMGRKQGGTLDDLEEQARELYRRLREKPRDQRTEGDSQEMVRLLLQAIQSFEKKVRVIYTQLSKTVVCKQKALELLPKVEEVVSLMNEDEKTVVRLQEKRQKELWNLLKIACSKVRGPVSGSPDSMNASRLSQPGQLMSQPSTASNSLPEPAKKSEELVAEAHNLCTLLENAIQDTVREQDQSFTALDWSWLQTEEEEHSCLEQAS

[22] = target: INSR (human) (UniProt P06213)
INSR (human), sequence (P06213 whole entry, looked up): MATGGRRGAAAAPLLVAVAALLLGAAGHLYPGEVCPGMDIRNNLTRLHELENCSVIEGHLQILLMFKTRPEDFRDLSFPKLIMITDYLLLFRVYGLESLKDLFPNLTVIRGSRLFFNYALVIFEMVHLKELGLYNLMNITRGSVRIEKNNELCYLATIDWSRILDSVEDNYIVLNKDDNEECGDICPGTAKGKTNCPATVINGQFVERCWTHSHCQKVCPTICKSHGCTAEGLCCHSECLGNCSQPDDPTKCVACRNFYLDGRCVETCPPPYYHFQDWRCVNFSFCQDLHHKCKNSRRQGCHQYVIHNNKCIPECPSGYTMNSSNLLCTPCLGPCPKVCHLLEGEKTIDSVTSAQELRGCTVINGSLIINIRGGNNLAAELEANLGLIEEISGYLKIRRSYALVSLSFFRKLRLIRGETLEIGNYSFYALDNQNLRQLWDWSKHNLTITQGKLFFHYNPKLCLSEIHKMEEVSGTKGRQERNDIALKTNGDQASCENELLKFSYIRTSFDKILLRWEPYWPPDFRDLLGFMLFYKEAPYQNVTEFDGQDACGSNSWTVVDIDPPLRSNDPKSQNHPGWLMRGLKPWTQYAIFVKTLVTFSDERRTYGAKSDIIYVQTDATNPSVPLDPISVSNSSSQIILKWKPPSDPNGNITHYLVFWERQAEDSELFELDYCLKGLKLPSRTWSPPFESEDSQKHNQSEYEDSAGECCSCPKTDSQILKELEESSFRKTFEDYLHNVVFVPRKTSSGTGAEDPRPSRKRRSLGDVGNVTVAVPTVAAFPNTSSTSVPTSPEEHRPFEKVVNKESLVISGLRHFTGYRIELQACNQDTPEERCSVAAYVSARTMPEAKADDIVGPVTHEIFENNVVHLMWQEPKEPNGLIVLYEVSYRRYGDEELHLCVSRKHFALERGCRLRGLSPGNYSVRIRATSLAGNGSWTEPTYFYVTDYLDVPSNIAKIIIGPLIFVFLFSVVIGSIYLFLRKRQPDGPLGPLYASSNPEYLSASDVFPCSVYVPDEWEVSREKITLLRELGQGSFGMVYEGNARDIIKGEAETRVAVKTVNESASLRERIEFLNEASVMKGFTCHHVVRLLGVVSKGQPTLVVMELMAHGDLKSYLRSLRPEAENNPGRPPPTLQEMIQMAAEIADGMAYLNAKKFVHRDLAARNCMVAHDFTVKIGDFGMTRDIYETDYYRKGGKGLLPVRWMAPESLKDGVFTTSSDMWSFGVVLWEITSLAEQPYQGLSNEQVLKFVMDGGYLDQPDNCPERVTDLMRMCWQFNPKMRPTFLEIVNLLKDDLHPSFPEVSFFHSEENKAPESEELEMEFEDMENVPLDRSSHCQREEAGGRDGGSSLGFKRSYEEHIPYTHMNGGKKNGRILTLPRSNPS

[23] = target: MAPK11 (human) (UniProt Q15759)
[24] = target: MAPK13 (human) (UniProt O15264)
[25] = target: MARK4 (human) (UniProt Q96L34)
[26] = target: MKNK2 (human) (UniProt Q9HBH9)
[27] = target: MST4 (human) (UniProt Q9P289)
[28] = target: NEK9 (human) (UniProt Q8TD19)
[29] = target: PAK6 (human) (UniProt Q9NQU5)
[30] = target: PLK1 (human) (UniProt P53350)
[31] = target: PLK2 (human) (UniProt Q9NYY3)
[32] = target: PRKCD (human) (UniProt Q05655)
[33] = target: PRKD2 (human) (UniProt Q9BZL6)
[34] = target: RPS6KB1 (human) (UniProt P23443)
RPS6KB1 (human), sequence (P23443 whole entry, looked up): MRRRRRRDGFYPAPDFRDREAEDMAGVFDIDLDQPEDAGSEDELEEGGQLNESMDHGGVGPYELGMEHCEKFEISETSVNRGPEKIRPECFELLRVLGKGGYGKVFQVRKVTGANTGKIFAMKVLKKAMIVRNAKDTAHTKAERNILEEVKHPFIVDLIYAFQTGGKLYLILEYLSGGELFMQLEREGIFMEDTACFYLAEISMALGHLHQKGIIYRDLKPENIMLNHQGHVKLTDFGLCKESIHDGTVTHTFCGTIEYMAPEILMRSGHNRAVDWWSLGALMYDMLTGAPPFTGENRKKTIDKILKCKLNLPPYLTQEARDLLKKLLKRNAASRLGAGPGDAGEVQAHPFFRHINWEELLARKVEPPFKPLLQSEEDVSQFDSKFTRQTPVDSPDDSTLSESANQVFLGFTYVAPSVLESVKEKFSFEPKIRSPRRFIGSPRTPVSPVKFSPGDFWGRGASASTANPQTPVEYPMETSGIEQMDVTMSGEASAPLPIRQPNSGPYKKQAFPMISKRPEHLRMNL

[35] = target: SGK3 (human) (UniProt Q96BR1)
[36] = target: SIK2 (human) (UniProt Q9H0K1)
[37] = target: SRPK1 (human) (UniProt Q96SB4)
SRPK1 (human), sequence (Q96SB4 whole entry, looked up): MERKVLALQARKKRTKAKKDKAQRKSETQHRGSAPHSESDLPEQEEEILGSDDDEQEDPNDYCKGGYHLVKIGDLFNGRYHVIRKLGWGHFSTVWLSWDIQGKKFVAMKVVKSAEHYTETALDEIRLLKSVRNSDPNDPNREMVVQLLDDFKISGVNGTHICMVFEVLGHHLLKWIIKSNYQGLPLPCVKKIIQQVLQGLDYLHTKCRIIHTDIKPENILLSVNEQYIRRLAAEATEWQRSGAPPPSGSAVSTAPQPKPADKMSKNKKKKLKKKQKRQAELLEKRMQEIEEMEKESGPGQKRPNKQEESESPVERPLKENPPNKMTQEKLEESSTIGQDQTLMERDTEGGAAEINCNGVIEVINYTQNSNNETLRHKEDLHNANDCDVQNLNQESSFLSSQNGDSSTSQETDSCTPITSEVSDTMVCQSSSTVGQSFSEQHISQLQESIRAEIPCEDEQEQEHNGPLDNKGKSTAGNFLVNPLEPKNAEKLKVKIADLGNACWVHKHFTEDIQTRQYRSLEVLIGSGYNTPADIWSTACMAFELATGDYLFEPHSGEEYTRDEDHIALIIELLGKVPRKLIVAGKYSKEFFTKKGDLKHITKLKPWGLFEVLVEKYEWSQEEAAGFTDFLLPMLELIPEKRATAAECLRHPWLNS

[38] = target: SRPK3 (human) (UniProt Q9UPE1)
[39] = target: STK17A (human) (UniProt Q9UEE5)
[40] = target: STK25 (human) (UniProt O00506)
[41] = target: TBK1 (human) (UniProt Q9UHD2)
TBK1 (human), sequence (Q9UHD2 whole entry, looked up): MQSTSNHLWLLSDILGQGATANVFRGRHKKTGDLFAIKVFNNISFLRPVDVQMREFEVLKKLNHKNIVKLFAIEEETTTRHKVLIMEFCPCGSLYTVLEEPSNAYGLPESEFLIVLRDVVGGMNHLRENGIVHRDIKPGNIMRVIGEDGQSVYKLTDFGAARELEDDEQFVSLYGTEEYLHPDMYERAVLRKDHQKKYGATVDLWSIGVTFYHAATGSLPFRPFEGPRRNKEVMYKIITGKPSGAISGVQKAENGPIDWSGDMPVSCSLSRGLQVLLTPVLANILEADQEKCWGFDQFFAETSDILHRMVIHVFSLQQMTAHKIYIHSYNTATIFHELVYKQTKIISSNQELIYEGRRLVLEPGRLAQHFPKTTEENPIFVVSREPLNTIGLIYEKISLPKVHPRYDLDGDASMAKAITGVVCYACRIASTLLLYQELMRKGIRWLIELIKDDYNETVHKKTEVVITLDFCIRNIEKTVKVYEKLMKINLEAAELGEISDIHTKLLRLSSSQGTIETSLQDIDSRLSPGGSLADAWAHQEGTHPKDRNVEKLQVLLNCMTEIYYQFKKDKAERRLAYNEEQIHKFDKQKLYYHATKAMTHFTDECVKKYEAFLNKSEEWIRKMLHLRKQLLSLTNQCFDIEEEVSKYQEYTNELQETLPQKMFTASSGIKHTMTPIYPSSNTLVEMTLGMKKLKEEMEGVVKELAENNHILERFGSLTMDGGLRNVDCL

[42] = target: TSSK2 (human) (UniProt Q96PF2)

AKT1 (human), sequence (P31749 whole entry, looked up): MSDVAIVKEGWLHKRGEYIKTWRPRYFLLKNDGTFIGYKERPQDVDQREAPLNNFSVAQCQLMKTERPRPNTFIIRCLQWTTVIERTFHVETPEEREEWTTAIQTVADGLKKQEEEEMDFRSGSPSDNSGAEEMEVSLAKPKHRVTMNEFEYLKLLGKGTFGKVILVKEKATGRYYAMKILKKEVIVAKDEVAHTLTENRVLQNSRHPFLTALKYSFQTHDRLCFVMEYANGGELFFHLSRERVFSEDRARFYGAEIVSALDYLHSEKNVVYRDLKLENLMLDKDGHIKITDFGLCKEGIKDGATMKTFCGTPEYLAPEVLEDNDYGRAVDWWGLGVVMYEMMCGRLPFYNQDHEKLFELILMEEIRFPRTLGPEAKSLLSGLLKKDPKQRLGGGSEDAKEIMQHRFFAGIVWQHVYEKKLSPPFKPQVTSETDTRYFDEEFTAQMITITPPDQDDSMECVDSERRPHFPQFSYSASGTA

Cc1cc2ncc(-c3ccccc3)nc2cc1C
residual activity [1]: 101% | residual activity [2]: 100% | residual activity [3]: 96.5% | residual activity [4]: 94.8% | residual activity [5]: 101% | residual activity [6]: 94.6% | residual activity [7]: 89.1% | residual activity [8]: 98.5% | residual activity [9]: 90.7% | residual activity [10]: 90.3% | residual activity [11]: 100% | residual activity [12]: 95.7% | residual activity [13]: 96.1% | residual activity [14]: 96.6% | residual activity [15]: 97.3% | residual activity [16]: 108% | residual activity [17]: 99.4% | residual activity [18]: 102% | residual activity [19]: 79.5% | residual activity [20]: 105% | residual activity [21]: 101% | residual activity [22]: 94% | residual activity [23]: 96.8% | residual activity [24]: 107% | residual activity [25]: 105% | residual activity [26]: 94.8% | residual activity [27]: 97.6% | residual activity [28]: 93.1% | residual activity [29]: 97.4% | residual activity [30]: 101% | residual activity [31]: 95% | residual activity [32]: 92.3% | residual activity [33]: 96.5% | residual activity [34]: 88.2% | residual activity [35]: 101% | residual activity [36]: 87.4% | residual activity [37]: 103% | residual activity [38]: 91.4% | residual activity [39]: 80% | residual activity [40]: 92.5% | residual activity [41]: 93.8% | residual activity [42]: 87.5%

Nc1n[nH]c2nnc(-c3c(-c4ccccc4)nn4ccccc34)cc12
residual activity [1]: 98% | residual activity [2]: 99.1% | residual activity [3]: 98.1% | residual activity [4]: 93.6% | residual activity [5]: 89.2% | residual activity [6]: 100% | residual activity [7]: 105% | residual activity [8]: 99% | residual activity [9]: 63.2% | residual activity [10]: 102% | residual activity [11]: 100% | residual activity [12]: 101% | residual activity [13]: 101% | residual activity [14]: 99.5% | residual activity [15]: 97.8% | residual activity [16]: 102% | residual activity [17]: 95% | residual activity [18]: 96.7% | residual activity [19]: 109% | residual activity [20]: 99.7% | residual activity [21]: 115% | residual activity [22]: 78.3% | residual activity [23]: 90% | residual activity [24]: 101% | residual activity [25]: 105% | residual activity [26]: 98.3% | residual activity [27]: 75.9% | residual activity [28]: 93.4% | residual activity [29]: 96.4% | residual activity [30]: 98.1% | residual activity [31]: 107% | residual activity [32]: 31.2% | residual activity [33]: 54.1% | residual activity [34]: 97.7% | residual activity [35]: 90.2% | residual activity [36]: 93.6% | residual activity [37]: 83.7% | residual activity [38]: 88.9% | residual activity [39]: 99.9% | residual activity [40]: 84.2% | residual activity [41]: 100% | residual activity [42]: 104%

CCN1/C(=C/C(C)=O)Sc2ccc(OC)cc21
residual activity [1]: 90.1% | residual activity [2]: 105% | residual activity [3]: 95.4% | residual activity [4]: 101% | residual activity [5]: 92.1% | residual activity [6]: 97.4% | residual activity [7]: 91.1% | residual activity [8]: 94.8% | residual activity [9]: 54.2% | residual activity [10]: 98.7% | residual activity [11]: 97.9% | residual activity [12]: 96.6% | residual activity [13]: 97.8% | residual activity [14]: 95.8% | residual activity [15]: 101% | residual activity [16]: 97.1% | residual activity [17]: 99.1% | residual activity [18]: 104% | residual activity [19]: 98.1% | residual activity [20]: 95% | residual activity [21]: 102% | residual activity [22]: 101% | residual activity [23]: 84.5% | residual activity [24]: 105% | residual activity [25]: 102% | residual activity [26]: 93.8% | residual activity [27]: 87.9% | residual activity [28]: 102% | residual activity [29]: 95.6% | residual activity [30]: 97% | residual activity [31]: 100% | residual activity [32]: 88.2% | residual activity [33]: 69.4% | residual activity [34]: 95% | residual activity [35]: 93.4% | residual activity [36]: 116% | residual activity [37]: 106% | residual activity [38]: 95% | residual activity [39]: 99.3% | residual activity [40]: 98% | residual activity [41]: 94.5% | residual activity [42]: 106%
